Values of other authors in US8709996B2, “Pharmaceutical treatment process using chitosan or derivative thereof” (Archimedes Development Limited, priority 2003, dated 2014).

Settings: pig, in vivo

Row | bioavailability of octreotide compared to a solution of octreotide alone | Substance
1 | substantial increases in bioavailability | chitosan hydrochloride
2 | substantial increases in bioavailability | trimethyl chitosan chloride
